Legend:
[1] = test system: B6-KPC3 cells; assay: Cellular toxicity, MTS assay, B6-KPC3 cells; format: cell-based, mice; settings: B6-KPC3 cell line, Cyt-C16 2.5% (w/wLabrafac) at the LNC surface
Method: B6-KPC3 cells (pancreas tumor from transgenic KPC mice) (gift from the Department of Oncology and Surgical Sciences of Padova, Pr. Vincenzo Bronte), were grown in suspension at 37° C., 90% humidity, 5% CO2 in DMEM medium, completed with decomplemented FBS (10% v/v), penicillin (100 UI·mL^−1), streptomycin ([…]), amphotericin B ([…]), HEPES 10 mM (1% v/v), L-glutamin 2 mM (1% v/v), and β-mercaptoethanol 20 μM (1% v/v). The cells (3.5·10^3 cells/well in 200-μL medium) were then plated on a 96-well cell culture dish and left to grow for 48 h at 37° C. The cytotoxicitiy of diluted LNCs (diameter 50 or 100 nm), non-loaded or loaded with Cyt-C16 2.5% (w/wLabrafac), in cell culture medium, was determined. Fresh cell culture medium was used as controls. […] The number of living cells was determined using a MTS (3-(4,5-dimethylthiazol-2-yl)-5-(3-carboxymethoxyphenyl)-2-(4-sulfophenyl)-2H-tetrazolium salt) assay (colorimetric assay based on the conversion of a tetrazolium salt into formazan). Formazan absorbance was measured at 492 nm and 750 nm, directly from well plates using a spectrophotometer Multiscan Ascent® MP reader (Thermo Scientific, Courtaboeuf, France), after exposition to MTS (20 μL per well) for 2.5 h at 37° C. The percentage of cell viability was calculated according to the following equation: […]

[2] = solubilized in Labrafac at 70° C., then cooling
Method: Cyt-C16 was solubilized in Labrafac at 70° C. under magnetic stirring. […] The viscoelastic properties of the oleogels (Cyt-016 from 0.005 to 0.2 mmol·g^−1 of Labrafac, corresponding to Cyt-C16 from 0.25 to 9.95% (w/wLabrafac)), at 25° C. were measured using a Kinexus® rheometer (Malvern Instruments S.A., United Kingdom), with a plate plate geometry (diameter 20 mm, gap: 800 μm). The oleogels were deposited directly on the bottom plate geometry of the rheometer and the top plate geometry was placed in contact with the sample. Oscillatory strain sweeps at 1 Hz constant frequency were performed to determine the linear regime characterized by constant dynamic moduli (elastic: G′ and viscous: G″ moduli), independent of the strain amplitude. In this regime (0.01% constant shear strain), G′ and G′ were measured as a function of angular frequency (0.1 to 10 Hz). In addition, a temperature ramp from 25 to 70° C. (2° C.·min^−1) was performed at 0.01% constant shear strain and 1 Hz constant angular frequency. All these experiments were repeated in triplicate.

[3] = test system: THP-1 cells; assay: Cellular toxicity, MTS assay, THP-1 cells; format: cell-based, human; settings: THP1 cell line, Cyt-C16 2.5% (w/wLabrafac) at the LNC surface
Method: THP-1 cells (human monocyte/macrophage cell line obtained from ATCC, Manassas, VA, USA) were grown in suspension at 37° C., 90% humidity, 5% CO2 in RPMI 1640 medium, completed with decomplemented FBS (10% v/v), penicillin (100 UI·mL^−1), streptomycin ([…]), amphotericin B ([…]), HEPES 10 mM (1% v/v), Pyruvate Sodium 100 mM (1% v/v) and β-mercaptoethanol 20 μM (1% v/v). Cell differentiation was induced in the same medium by adding PMA 200 nM. A 48-h incubation allows the cells to adhere (15·10^3 cells/well in a 96-well cell culture dish). After medium aspiration to eliminate non-adhered cells, cells were washed again with fresh medium.
B6-KPC3 cells (pancreas tumor from transgenic KPC mice) (gift from the Department of Oncology and Surgical Sciences of Padova, Pr. Vincenzo Bronte), were grown in suspension at 37° C., 90% humidity, 5% CO2 in DMEM medium, completed with decomplemented FBS (10% v/v), penicillin (100 UI·mL^−1), streptomycin ([…]), amphotericin B ([…]), HEPES 10 mM (1% v/v), L-glutamin 2 mM (1% v/v), and β-mercaptoethanol 20 μM (1% v/v). […] The cytotoxicitiy of diluted LNCs (diameter 50 or 100 nm), non-loaded or loaded with Cyt-C16 2.5% (w/wLabrafac), in cell culture medium, was determined. […] The percentage of cell viability was calculated according to the following equation: […]

[4] = Cyt-C16 concentration in the hydrogels of LNCs by LC-MS/MS; format: physicochemical; settings: LC-MS/MS recovery in hydrogels
Method: The Cyt-C16 concentrations in the hydrogels of LNCs were determined using a LC-MS/MS apparatus: Alliance® 295 system (Waters, Saint-Quentin-en-Yvelines, France) with a Zorbax—Eclipse XDB-C18 column 4.6×150 mm, 3.5 μm, (Agilent Technologies, Santa Clara, United States). The temperature was fixed to 25° C. The mobile phase consisted of methanol with formic acid 0.1% (v/v), at a flow rate of 0.8 mL·min^−1. The injection volume was 10 μL. The total HPLC effluent was directed into a Quattro Micro® triple quadrupole mass spectrometer (Waters Saint-Quentin-en-Yvelines, France). Ionization was achieved using turbo ion spray in positive ion mode. The mass spectrometer operated in multiple reactions monitoring (MRM) mode. The […] transitions for Cyt-C16 was 482>112 and 482>350. Cyt-C16 was diluted in methanol at concentration from 1.25 to 200 ng·mL^−1, in presence of non-loaded LNCs, for the calibration curve. A volume of 50 μL of hydrogels was dissolved with deionized water at 1:4000 (v/v), to obtain a complete dispersion of LNCs. Then, a volume of 100 μL was mixed with 900 μL of methanol. Quantification of Cyt-C16 was achieved after filtration of this solution on 0.22-μm filter.

[5] = phase-inversion process
Description: The LNCs formulation was based on a phase-inversion process, from oil-in-water emulsion at low temperature to water-in-oil emulsion at high temperature. The quantities of oil phase (Labrafac), aqueous phase (water and NaCl) and surfactants (Kolliphor and Span 80) for each formulation were precisely weighed. For 25 nm-diameter LNCs, mLabrafac=0.6 g, mKol=1.8 g, mSpan80=0.3 g, mWater=1.3 g and mNaCl=0.054 g; for 50 nm-diameter LNCs, mLabrafac=1.1168 g, mKol=0.9168 g, mSpan80=0.45 g, mWater=1.5168 g and mNaCl=0.054 g; for 75 nm-diameter LNCs, mLabrafac=1.8 g, mKol=1.3 g, mSpan80=0.3 g, mWater=0.6 g and mNaCl=0.054 g; for 100 nm-diameter LNCs, mLabrafac=1.8 g, mKol=0.95 g, mSpan80=0.3 g, mWater=0.95 g and mNaCl=0.054 g.
Then, Kolliphor and the aqueous phase were added and the mixture was heated to 75° C. under magnetic stirring followed by cooling to 45° C. (rate of 5° C.·min^−1). This cycle was repeated three times and during the last temperature decrease at the phase-inversion temperature (about 60° C.), an irreversible shock was induced by dilution with 2 mL of pure water. Afterwards, slow magnetic stirring was applied to the suspension of LNCs at room temperature, and a hydrogel was spontaneously formed. The gelation process was completed after 24 h at 4° C. Prior completed gelation, a part of the formulation was diluted by a factor of 60 (v/v) with pure water.

oil gelation of Labrafac after cooling [2]: led to the oil gelation after cooling
degradation of the molecule by the formulation process [4]: does not degrade
SMILES: CCCCCCCCCCCCCCCC(=O)Nc1ccn([C@@H]2O[C@H](CO)[C@@H](O)[C@H]2O)c(=O)n1 [Cyt-C16, 4-(N)-palmitoyl cytidine]
additional cytotoxicity in comparison to native LNCs [1]: does not cause additional cytoxicity
additional cytotoxicity in comparison to native LNCs [3]: does not cause additional cytoxicity
effect of adding Cyt-C16 to the LNC formulation process [5]: the LNCs suspension turned into a hydrogel
